Active and inactive are the calls of the source. The rule behind the calls is not given here.
Tests used:
Assay type in all cases: functional, cell-based
N2a [1] = test: Protection against tunicamycin-induced endoplasmic reticulum stress-dependent mouse Neuro2a cells death after 24 hrs by MTT assay
N2a [2] = test: Protection against thapsigargin-induced endoplasmic reticulum stress-dependent mouse Neuro2a cells death after 24 hrs by MTT assay
N2a [3] = test: Protection against tunicamycin-induced endoplasmic reticulum stress-dependent mouse Neuro2a cells death upto 10 ug/ml after 24 hrs by MTT assay
N2a [4] = test: Protection against thapsigargin-induced endoplasmic reticulum stress-dependent mouse Neuro2a cells death upto 10 ug/ml after 24 hrs by MTT assay

Row | SMILES | Activity (N2a [1]) | Activity (N2a [2]) | Activity (N2a [3]) | Activity (N2a [4])
1 | CCCCCCCCCCCCCCCC(=O)OCc1cc(OC)c2c(c1C=O)O[C@@](C)(CC(=O)C=C(C)C)[C@@H](O)C2 (relative stereo) | Dose-dependent effect | Dose-dependent effect | – | –
2 | COc1cc2c(c3c1CCC(C)(CC(=O)C=C(C)C)O3)COC2=O (racemic) | – | – | inactive | inactive
3 | COc1cc2c(c(O)c1C/C=C(\C)CCC=C(C)C)C(=O)OC2 | – | – | inactive | inactive
